These are literature values, as cited in PMC6499206, “Quantification of Volatile Metabolites Derived From Garlic (Allium sativum) in Human Urine” (Frontiers in Nutrition, 2019).

In this data set the test system is cardiac hypertrophy. More on the design: method as in PMID 28194108. The note with it: rats; by increasing Na+/K+-ATPase; cited from earlier work.

On to `C=CCSC` [AMS, allyl methyl sulfide], for which the “effect on cardiac hypertrophy” value is “attenuated cardiac hypertrophy”.

As to `C=CC[S+](C)[O-]` (centres unmarked) [AMSO, allyl methyl sulfoxide], the “effect on cardiac hypertrophy” value was “attenuated cardiac hypertrophy”.
